In BindingDB's records for patent US10322118 (Dartmouth College, 2019):
pIC50: −log10 of the molar value.

What follows are molecules tested against T1, Bifunctional epoxide hydrolase 2 (Homo sapiens, UniProt P34913) (assay: Biochemical Characterization of Cif Inhibitors).
T1 sequence (P34913 whole entry): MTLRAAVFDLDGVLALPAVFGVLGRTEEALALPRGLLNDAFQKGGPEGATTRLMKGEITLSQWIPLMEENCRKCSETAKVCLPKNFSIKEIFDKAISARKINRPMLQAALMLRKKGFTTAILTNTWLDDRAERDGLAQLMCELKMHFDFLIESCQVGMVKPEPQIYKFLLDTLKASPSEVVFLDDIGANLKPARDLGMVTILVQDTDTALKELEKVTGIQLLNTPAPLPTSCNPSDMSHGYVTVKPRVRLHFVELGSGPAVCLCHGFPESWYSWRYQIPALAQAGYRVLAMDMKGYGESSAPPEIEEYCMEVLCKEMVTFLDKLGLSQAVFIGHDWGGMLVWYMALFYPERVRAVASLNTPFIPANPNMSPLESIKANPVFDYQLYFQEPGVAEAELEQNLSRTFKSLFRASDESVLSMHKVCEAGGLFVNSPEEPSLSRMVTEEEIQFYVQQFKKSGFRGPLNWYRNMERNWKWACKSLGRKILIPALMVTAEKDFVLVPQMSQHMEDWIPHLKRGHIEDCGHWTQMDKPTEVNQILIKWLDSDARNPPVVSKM
For `CCC(=O)Oc1ccc(NC(=O)NC23CC4CC(CC(C4)C2)C3)cc1` [US10322118, Urea-Based Scaffold Entry 1], the pIC50 was 8.42.
Molecule `CCCCCCCCCCCCS(C)(=O)=O` [US10322118, Urea-Based Scaffold Entry 8] has a pIC50 of 4.48.

Each molecule was assayed against T2, Putative hydrolase (Pseudomonas aeruginosa (strain UCBPP-PA14), UniProt A0A0H2ZD27) (assay: Biochemical Characterization of Cif Inhibitors).
T2 sequence (A0A0H2ZD27 whole entry): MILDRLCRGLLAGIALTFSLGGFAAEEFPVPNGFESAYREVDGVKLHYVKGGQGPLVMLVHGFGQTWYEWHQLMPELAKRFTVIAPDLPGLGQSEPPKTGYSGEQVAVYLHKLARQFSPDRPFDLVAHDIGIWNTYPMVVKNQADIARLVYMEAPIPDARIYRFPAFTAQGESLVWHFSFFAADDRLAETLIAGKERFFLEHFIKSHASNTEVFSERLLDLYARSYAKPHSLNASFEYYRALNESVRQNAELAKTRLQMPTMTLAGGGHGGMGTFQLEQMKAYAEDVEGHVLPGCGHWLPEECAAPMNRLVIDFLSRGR
With `O=C(O)Cc1cc(I)c(Oc2cc(I)c(O)c(I)c2)c(I)c1` [US10322118, Entry 1] the pIC50 was 4.70.
`O=C(O)Cc1cc(I)c(Oc2ccc(O)cc2)c(I)c1` [US10322118, Entry 3] showed a pIC50 of 4.00.
`Cc1cc(OCC(=O)O)cc(C)c1Cc1ccc(O)c(C(C)C)c1` [US10322118, Entry 7] was tested, and the pIC50 was < 4.00.
In the case of `Oc1ccc(Oc2ccccc2)cc1` [US10322118, Entry 9], the pIC50 was < 4.00.
For `Nc1ccc(Oc2ccccc2)cc1` [US10322118, Entry 10], the pIC50 was < 4.00.
`O=C(O)c1ccc(Oc2ccccc2)cc1` [US10322118, Entry 11] was tested, and the pIC50 was < 4.00.
`CCC(=O)Oc1ccc(NC(=O)NC23CC4CC(CC(C4)C2)C3)cc1` [US10322118, Urea-Based Scaffold Entry 1] was tested, and the pIC50 was < 4.00.
`Cc1cc(C)cc(NC(=O)NC(=O)c2c(F)cccc2F)c1` [US10322118, Urea-Based Scaffold Entry 3] was tested, and the pIC50 was 5.74.
`O=C(NC(=O)c1c(F)cccc1F)Nc1cc(Cl)cc(Cl)c1` [US10322118, Urea-Based Scaffold Entry 4] was tested, and the pIC50 was 5.82.
`CN(C(=O)NC(=O)c1c(F)cccc1F)c1ccc(Cl)cc1` [US10322118, Urea-Based Scaffold Entry 7] was tested, and the pIC50 was < 4.00.
`Cc1ccc(-c2cc(C(F)(F)F)nn2-c2ccc(S(N)(=O)=O)cc2)cc1` [US10322118, Urea-Based Scaffold Entry 9] gave a pIC50 of 5.13.
